Experimental data as given in article PMC3735939, “The low levels of eicosapentaenoic acid in rat brain phospholipids are maintained via multiple redundant mechanisms” (Journal of Lipid Research, 2013).
Values joined by “and” are separate entries in the source; they are usually repeats but may differ in a detail not shown here. Equal values may be shown once.

Legend:
[1] = Identification of radiolabeled FAs in brain phospholipids by HPLC and LSC after 14C-EPA infusion; format: in vivo, rat; conditions: for percent of total radiolabeled FAs: brain total phospholipids;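 on radiolabeled FA composition: percent of radiolabeled FAs within each phospholipid class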
Experimental: (§1) Twenty-four hours postsurgery, a second catheter (iv catheter 24 gauge/0.75 inch, Angiocath™; Becton Dickinson) was implanted into the tail vein where rats received either vehicle or 10 mg/kg of MEP. Ten minutes post injection of vehicle or MEP, the tail vein catheter was connected to a syringe containing radiolabeled ^14C-palmitate (n = 8), ^14C-DHA (n = 6), or ^14C-EPA (n = 7) attached to a computer-controlled variable speed pump (PHD 22/2000; Harvard Apparatus, Holliston, MA). […] Each rat received a dose of 76 μCi ^14C-palmitate, 76 μCi ^14C-DHA, or 78 μCi ^14C-EPA. […] The radiotracer infusions continued until rats were euthanized. The brain was excised and cut sagittally. Both hemispheres were stored at −80°C for radioactive and biochemical analyses. Plasma was isolated from whole blood via microcentrifugation at 6,200 rpm (2,000 g) for 5 min and stored at −80°C. Total lipids from one brain hemisphere and from plasma were extracted by the method of Folch, Lees, and Sloane Stanley ([39]). Isolation of various neutral lipid and phospholipid classes from the total lipid extract was previously described by Chen, Liu, and Bazinet ([6]). FA methyl esters and radioactive acyl-CoA analysis were previously described by Chen, Liu, and Bazinet ([6]).

[2] = Radioactivity in brain lipid fractions after 5 min intravenous 14C-tracer infusion (TLC, LSC); format: in vivo, rat; conditions: for esterification of radiolabeled FA into brain total phospholipids: 14C-EPA-infused rats; for total radioactivity in brain total phospholipids: not adjusted for percent composition of 14C-EPA
Experimental: as §1

[3] = system: mitochondrial FA β-oxidation; assay: Radioactivity in brain aqueous fraction (marker of β-oxidation) after 5 min intravenous 14C-tracer infusion; format: in vivo, rat; conditions: vehicle injection; 5 min iv infusion of tracer
Experimental: as §1, with “([6]).” for “([6]). FA methyl esters and radioactive acyl-CoA analysis were previously described by Chen, Liu, and Bazinet ([6]).”

[4] = In vivo kinetics of FA incorporation and turnover in brain phospholipids (intravenous radiotracer infusion, kinetic model); set-up: species or system rat
Experimental: Twenty-four hours postsurgery, a second catheter (iv catheter 24 gauge/0.75 inch, Angiocath™; Becton Dickinson) was implanted into the tail vein where rats received either vehicle or 10 mg/kg of MEP. […] The radiotracers were infused for 5 min via the tail vein catheter at a rate of 0.223(1 + e^−19.2t) ml/min (t is infusion time in minutes) ([37]) which achieves a steady-state plasma radioactivity within 1 min ([18], [38]). […] During the 5 min infusion, blood samples were collected from the jugular vein at approximately 0, 0.25, 0.5, 0.75, 1.5, 3, 4, and 5 min while the unanesthetized rat was mobile in the infusion box with food and water. […] After 5 min, the rats were rapidly euthanized by head-focused high-energy microwave irradiation (13.5 kW for 1.6 s; Cober Electronics Inc., Stratford, CT). The radiotracer infusions continued until rats were euthanized. The brain was excised and cut sagittally. Both hemispheres were stored at −80°C for radioactive and biochemical analyses. Plasma was isolated from whole blood via microcentrifugation at 6,200 rpm (2,000 g) for 5 min and stored at −80°C.
The model for in vivo kinetics of brain FAs in rats has been previously described ([17], [18], [21], [23], [25], [37], [41]).
Because the infusion is 5 min, contributions of FA from de novo synthesis and esterified plasma FA are negligible ([18], [20], [23], [41]); thus only contributions from plasma unesterified FAs and acyl-CoA pools were considered in the calculation of λpalmitate, DHA, or EPA .

[5] = cited from earlier work

## CC/C=C\C/C=C\C/C=C\C/C=C\C/C=C\CCCCCC(=O)O [n-3 DPA, n-3 docosapentaenoic acid]
[1]; ChoGpl, MEP-treated rats
  radiolabeled FA composition: 26%
[1]; ChoGpl, vehicle-treated rats
  radiolabeled FA composition: 18%
[1]; EtnGpl, MEP-treated rats
  radiolabeled FA composition: 61%
[1]; EtnGpl, vehicle-treated rats
  radiolabeled FA composition: 47%
[1]; MEP-treated rats
  percent of total radiolabeled FAs: 38%
[1]; vehicle-treated rats
  percent of total radiolabeled FAs: 24%
[2]; MEP
  esterification of radiolabeled FA into brain total phospholipids: 8.3 ± 0.2 nCi/g brain
[2]; vehicle
  esterification of radiolabeled FA into brain total phospholipids: 4.1 ± 0.2 nCi/g brain

## CC/C=C\C/C=C\C/C=C\C/C=C\C/C=C\CCCC(=O)O [EPA, eicosapentaenoic acid]
[1]; ChoGpl, MEP-treated rats
  radiolabeled FA composition: 66%
[1]; ChoGpl, vehicle-treated rats
  radiolabeled FA composition: 65%
[1]; EtnGpl, MEP-treated rats
  radiolabeled FA composition: 25%
[1]; EtnGpl, vehicle-treated rats
  radiolabeled FA composition: 24%
[1]; PtdIns, MEP-treated rats
  radiolabeled FA composition: 65%
[1]; PtdIns, vehicle-treated rats
  radiolabeled FA composition: 66%
[1]; PtdSer, MEP-treated rats
  radiolabeled FA composition: 54%
[1]; PtdSer, vehicle-treated rats
  radiolabeled FA composition: 44%
[1]; MEP-treated rats
  percent of total radiolabeled FAs: 56%
[1]; vehicle-treated rats
  percent of total radiolabeled FAs: 62%
[3]
  radioactivity of brain aqueous fraction: 21 nCi/g brain
[2]; MEP
  total radioactivity in brain total phospholipids: 22 ± 0.6 nCi/g brain
[2]; vehicle
  total radioactivity in brain total phospholipids: 17 ± 0.9 nCi/g brain
[4]; ChoGpl, MEP
  FFA rate of turnover: 28 ± 4.5 %/day
  JFA net incorporation rate from brain acyl-CoA: 16 ± 2.3 nmol/g/day
  Jin net incorporation rate from plasma unesterified FA: 3.7 ± 0.31^! nmol/g/day
[4]; ChoGpl, Vehicle
  FFA rate of turnover: 46 ± 6.9 %/day
  JFA net incorporation rate from brain acyl-CoA: 23 ± 3.3 nmol/g/day
  Jin net incorporation rate from plasma unesterified FA: 2.8 ± 0.55 nmol/g/day
[4]; EtnGpl, MEP
  FFA rate of turnover: 9.5 ± 3.3 %/day
  JFA net incorporation rate from brain acyl-CoA: 5.4 ± 1.4 nmol/g/day
  Jin net incorporation rate from plasma unesterified FA: 1.2 ± 0.17 nmol/g/day
[4]; EtnGpl, Vehicle
  FFA rate of turnover: 8.4 ± 0.81 %/day
  JFA net incorporation rate from brain acyl-CoA: 6.4 ± 1.3 nmol/g/day
  Jin net incorporation rate from plasma unesterified FA: 0.78 ± 0.19 nmol/g/day
[4]; MEP
  λ dilution factor: 0.24 ± 0.022
[4]; PtdIns, MEP
  FFA rate of turnover: 17 ± 6.6 %/day
  JFA net incorporation rate from brain acyl-CoA: 3.0 ± 1.4 nmol/g/day
  Jin net incorporation rate from plasma unesterified FA: 0.73 ± 0.41 nmol/g/day
[4]; PtdIns, Vehicle
  FFA rate of turnover: 24 ± 1.7 %/day
  JFA net incorporation rate from brain acyl-CoA: 4.5 ± 0.2 nmol/g/day
  Jin net incorporation rate from plasma unesterified FA: 0.52 ± 0.087 nmol/g/day
[4]; PtdSer, MEP
  FFA rate of turnover: 3.1 ± 0.43 %/day
  JFA net incorporation rate from brain acyl-CoA: 1.2 ± 0.13 nmol/g/day
  Jin net incorporation rate from plasma unesterified FA: 0.29 ± 0.057 nmol/g/day
[4]; PtdSer, Vehicle
  FFA rate of turnover: 3.1 ± 0.56 %/day
  JFA net incorporation rate from brain acyl-CoA: 1.4 ± 0.36 nmol/g/day
  Jin net incorporation rate from plasma unesterified FA: 0.17 ± 0.055 nmol/g/day
[4]; Total PL, MEP
  FFA rate of turnover: 17 ± 2.3 %/day
  JFA net incorporation rate from brain acyl-CoA: 31 ± 4.8 nmol/g/day
  Jin net incorporation rate from plasma unesterified FA: 7.3 ± 0.7^! nmol/g/day
[4]; Total PL, Vehicle
  FFA rate of turnover: 21 %/day and 21 ± 2.9 %/day
  JFA net incorporation rate from brain acyl-CoA: 47 ± 5.7 nmol/g/day
  Jin net incorporation rate from plasma unesterified FA: 5.7 nmol/g/day and 5.7 ± 1.1 nmol/g/day
[4]; rat, in vivo
  Jin as percent of the Jout: 36%
  recycling into brain phospholipids, fold lower than DHA: 154 fold
[4]; vehicle
  λ dilution factor: 0.12 ± 0.014 and 0.12 ± 0.01
[5]
  Jout net rate of loss from brain phospholipids: 16 nmol/g/day
  loss t1/2 from brain phospholipids: 120 h
  rate of loss from brain phospholipids: 14 % per day

## CCCCCCCCCCCCCCCC(=O)O [Palmitate, [1-14C]palmitate]
[1]; ChoGpl, MEP-treated rats
  radiolabeled FA composition: 3%
[1]; ChoGpl, vehicle-treated rats
  radiolabeled FA composition: 6%
[1]; MEP-treated rats
  percent of total radiolabeled FAs: 2%
[1]; vehicle-treated rats
  percent of total radiolabeled FAs: 4%
[3]
  radioactivity of brain aqueous fraction: 17 nCi/g brain
[4]; ChoGpl, MEP
  FFA rate of turnover: 53 ± 13 %/day
  JFA net incorporation rate from brain acyl-CoA: 12,720 ± 3,120 nmol/g/day
[4]; ChoGpl, Vehicle
  FFA rate of turnover: 84 ± 33 %/day
  JFA net incorporation rate from brain acyl-CoA: 20,713 ± 9,692 nmol/g/day
[4]; EtnGpl, MEP
  FFA rate of turnover: 110 ± 37 %/day
  JFA net incorporation rate from brain acyl-CoA: 3,062 ± 1,011 nmol/g/day
[4]; EtnGpl, Vehicle
  FFA rate of turnover: 161 ± 66 %/day
  JFA net incorporation rate from brain acyl-CoA: 4,926 ± 2,623 nmol/g/day
[4]; MEP
  Jin into diacylglycerol: 238 ± 34 nmol/g/day
  Jin into triacylglycerol: 276 ± 19 nmol/g/day
[4]; PtdIns, MEP
  FFA rate of turnover: 311 ± 135 %/day
  JFA net incorporation rate from brain acyl-CoA: 2,443 ± 1,153 nmol/g/day
[4]; PtdIns, Vehicle
  FFA rate of turnover: 292 ± 80 %/day
  JFA net incorporation rate from brain acyl-CoA: 2,679 ± 1,655 nmol/g/day
[4]; PtdSer, MEP
  FFA rate of turnover: 261 ± 194 %/day
  JFA net incorporation rate from brain acyl-CoA: 849 ± 562 nmol/g/day
[4]; PtdSer, Vehicle
  FFA rate of turnover: 356 ± 259 %/day
  JFA net incorporation rate from brain acyl-CoA: 1,253 ± 792 nmol/g/day
[4]; Total PL, MEP
  FFA rate of turnover: 80 ± 30 %/day
  JFA net incorporation rate from brain acyl-CoA: 19,285 ± 6,630 nmol/g/day
[4]; Total PL, Vehicle
  FFA rate of turnover: 127 ± 57 %/day
  JFA net incorporation rate from brain acyl-CoA: 32,728 ± 17,692 nmol/g/day
[4]; vehicle
  Jin into diacylglycerol: 106 ± 19 nmol/g/day
  Jin into triacylglycerol: 140 ± 23 nmol/g/day
[5]
  Jout net rate of loss from brain phospholipids: 469 nmol/g/day
  rate of loss from brain phospholipids: 2 % per day
